# Tested on: Triticum aestivum
# Experiment: Drought stress test on sprayed greenhouse plants, visual damage scoring (Table 4)
# Assay type: in vivo
# Settings: efficacy = reduction in damage intensity, dosage 25 g/ha, spray WP, 600 l/ha water
# Method: (§1) Seeds of monocotyledonous and dicotyledonous crop plants are sown in sandy loam in plastic or wood-fiber pots, covered with soil or sand and cultivated in a greenhouse under good growth conditions. The test plants are treated at the early leaf stage (BBCH10-BBCH13). To assure uniform water supply before commencement of stress, the potted plants are supplied with water by dam irrigation prior to substance application. The inventive compounds, formulated in the form of wettable powders (WP), are sprayed onto the green parts of the plants as an aqueous suspension at an equivalent water application rate of 600 I/ha with addition of 0.2% wetting agent (e.g. agrotin). Substance application is followed immediately by stress treatment of the plants. For this purpose, the wood-fiber pots are transferred in plastic inserts in order to prevent them from subsequently drying out too quickly. Drought stress is induced by gradual drying out under the following conditions: “Day”: 14 hours with illumination at 26-30° C. “Night”: 10 hours without illumination at 18-20° C. The duration of the respective stress phases is guided mainly by the condition of the stressed control plants. […] The end of the stress phase is followed by an approx. 4-14-day recovery phase, during which the plants are once again kept under good growth conditions in a greenhouse. The duration of the recovery phase is guided mainly by when the trial plants have attained a state which enables visual scoring of potential effects, and is therefore variable. […] The damage intensity is at first assessed in percent.
row,Structure (SMILES),E (TRZAS)
1,COCCNC(=O)c1cc(C)c(C(F)(F)C(F)(F)F)[nH]c1=O [compound 266],>5
2,COCC(C)NC(=O)c1cc(C)c(C(F)(F)C(F)(F)F)[nH]c1=O (stereo not drawn) [compound 272],>5
3,CCc1cc(C(=O)N(C)CC(=O)OC)c(=O)[nH]c1C(F)(F)C(F)(F)F [compound 770],>5
4,CCNC(=O)c1cc(Cl)c(CC)[nH]c1=O [compound 3149],>5
5,CCc1[nH]c(=O)c(C(=O)NCCC(C)C)cc1Cl [compound 3170],>5
6,CCCc1[nH]c(=O)c(C(=O)NC(C)COC)cc1CC (stereo not drawn) [compound 3639],>5
7,CCCc1[nH]c(=O)c(C(=O)NCC)cc1Cl [compound 3699],>5
8,CCCc1[nH]c(=O)c(C(=O)N(C)CC(=O)OC)cc1Br [compound 3807],>5
9,CCCc1[nH]c(=O)c(C(=O)N(C)CC(=O)OC)cc1I [compound 3917],>5
10,CCCNC(=O)c1cc(I)c(CCC)[nH]c1=O [compound 3920],>5
11,CCCc1[nH]c(=O)c(C(=O)NCCC(C)C)cc1I [compound 3940],>5

# Same assay, conditions: efficacy = reduction in damage intensity, dosage 250 g/ha, spray WP, 600 l/ha water
row,Structure (SMILES),E (TRZAS)
1,Cc1cc(C(=O)NCCC(C)C)c(=O)[nH]c1C(F)(F)C(F)(F)F [compound 243],>5
2,COCCCNC(=O)c1cc(C)c(C(F)(F)C(F)(F)F)[nH]c1=O [compound 274],>5
3,CCc1cc(C(=O)NC(C)CN(C)C)c(=O)[nH]c1C(F)(F)C(F)(F)Cl (stereo not drawn) [compound 933],>5
4,CCc1[nH]c(=O)c(C(=O)NCCC(C)C)cc1C [compound 2840],>5
5,COC(=O)CN(C)C(=O)c1cc(C)c(C)[nH]c1=O [compound 4027],>5

# Tested on: Zea mays (corn)
# Experiment: Cold stress test on sprayed greenhouse plants, visual damage scoring (Table 1)
# Assay type: in vivo
# Settings: efficacy = reduction in damage intensity, dosage 25 g/ha, spray WP, 600 l/ha water
# Method: Seeds of monocotyledonous and dicotyledonous crop plants are sown in sandy loam in plastic or wood-fiber pots, covered with soil or sand and cultivated in a greenhouse under good growth conditions. The test plants are treated at the early leaf stage (BBCH10-BBCH13). To assure uniform water supply before commencement of stress, the potted plants are supplied with water by dam irrigation prior to substance application.
# The inventive compounds, formulated in the form of wettable powders (WP), are sprayed onto the green parts of the plants as an aqueous suspension at an equivalent water application rate of 600 I/ha with addition of 0.2% wetting agent (e.g. agrotin). Substance application is followed immediately by stress treatment of the plants. For this purpose, the wood-fiber pots are transferred in plastic inserts in order to prevent them from subsequently drying out too quickly.
# The duration of the respective stress phases is guided mainly by the condition of the stressed control plants. It is ended (by re-irrigating and transfer to a greenhouse with good growth conditions) as soon as irreversible damage is observed on the stressed control plants.
# The end of the stress phase is followed by an approx. 4-14-day recovery phase, during which the plants are once again kept under good growth conditions in a greenhouse. The duration of the recovery phase is guided mainly by when the trial plants have attained a state which enables visual scoring of potential effects, and is therefore variable.
# Once this juncture has been reached, the intensities of damage are scored visually in comparison to untreated, unstressed controls of the same age. The damage intensity is at first assessed in percent. These values are then used to calculate the efficacy of the test compounds by the following formula:
# [formula] • E: Efficacy=reduction in damage intensity as a result of treatment with test substance • DIs: Damage intensity of the stressed control plants • DIt: Damage intensity of the plants treated with test compound […]
row,Structure (SMILES),E:E (ZEAMX)
1,CC(C)(C)CNC(=O)c1cc(I)c(C(F)(F)F)[nH]c1=O [compound 2223],>5

# Same assay, conditions: efficacy = reduction in damage intensity, dosage 250 g/ha, spray WP, 600 l/ha water
row,Structure (SMILES),E:E (ZEAMX)
1,CC(C)C(C)NC(=O)c1cc(Br)c(C(F)C(F)(F)F)[nH]c1=O (stereo not drawn) [compound 2128],>5

# Tested on: Zea mays (corn)
# Experiment: Drought stress test on sprayed greenhouse plants, visual damage scoring (Table 2)
# Assay type: in vivo
# Parameters: key: reduction in damage intensity, damage assessed in %
# Settings: efficacy = reduction in damage intensity, dosage 2.5 g/ha, spray WP, 600 l/ha water
# Method: as §1
row,Structure (SMILES),E (ZEAMX)
1,COCCNC(=O)c1cc(Br)c(C)[nH]c1=O [compound 2423],>5

# Same assay, conditions: efficacy = reduction in damage intensity, dosage 25 g/ha, spray WP, 600 l/ha water
row,Structure (SMILES),E (ZEAMX)
1,COCCNC(=O)c1cc(C)c(C)[nH]c1=O [compound 46],>5
2,COC(=O)CNC(=O)c1cc(C)c(C)[nH]c1=O [compound 59],>5
3,CCCNC(=O)c1cc(C)c(C(F)(F)C(F)(F)F)[nH]c1=O [compound 223],>5
4,COCCNC(=O)c1cc(C)c(C(F)(F)C(F)(F)F)[nH]c1=O [compound 266],>5
5,CCc1cc(C(=O)NCC(=O)OC)c(=O)[nH]c1C(F)(F)F [compound 610],>5
6,CCc1cc(C(=O)NC(C)C)c(=O)[nH]c1C(F)(F)C(F)(F)F [compound 664],>5
7,CCc1cc(C(=O)NC(C)CC(C)C)c(=O)[nH]c1C(F)(F)C(F)(F)F (stereo not drawn) [compound 696],>5
8,CCc1cc(C(=O)NC2CCC2)c(=O)[nH]c1C(F)(F)Cl [compound 777],>5
9,CCNC(=O)c1cc(Cl)c(C(F)(F)F)[nH]c1=O [compound 1212],>5
10,CC(C)C(C)NC(=O)c1cc(Br)c(C(F)C(F)(F)F)[nH]c1=O (stereo not drawn) [compound 2128],>5
11,CCCNC(=O)c1cc(Cl)c(C)[nH]c1=O [compound 2270],>5
12,CCc1[nH]c(=O)c(C(=O)N(C)CC(=O)OC)cc1C [compound 2817],>5
13,CCCNC(=O)c1cc(I)c(CCC)[nH]c1=O [compound 3920],>5
14,CCCc1[nH]c(=O)c(C(=O)NCCC(C)C)cc1I [compound 3940],>5

# Same assay, conditions: efficacy = reduction in damage intensity, dosage 250 g/ha, spray WP, 600 l/ha water
row,Structure (SMILES),E (ZEAMX)
1,CCCNC(=O)c1cc(C)c(C)[nH]c1=O [compound 3],>5
2,Cc1cc(C(=O)NC(C)CC(C)C)c(=O)[nH]c1C (stereo not drawn) [compound 36],>5
3,Cc1cc(C(=O)NCC(=O)O)c(=O)[nH]c1C(F)(F)F [compound 170],>5
4,"Cc1cc(C(=O)N(C)c2ccccc2)c(=O)[nH]c1C(F)(F)F [compound 219, N,5-Dimethyl-2-oxo-N-phenyl-6-(trifluoromethyl)-1,2-dihydropyridine-3-carboxamide]",>5
5,CNC(=O)c1cc(C)c(C(F)(F)C(F)(F)F)[nH]c1=O [compound 221],>5
6,CCNC(=O)c1cc(C)c(C(F)(F)C(F)(F)F)[nH]c1=O [compound 222],>5
7,CCCc1cc(C(=O)NCC(=O)OC)c(=O)[nH]c1C(F)(F)C(F)(F)F [compound 1159],>5
8,CC(C)C(C)NC(=O)c1cc(Cl)c(C(F)(F)C(F)(F)Cl)[nH]c1=O (stereo not drawn) [compound 1578],>5
9,CN(C)C(=O)c1cc(Br)c(C(F)(Cl)C(F)(F)F)[nH]c1=O (stereo not drawn) [compound 2085],>5
10,CC(C)(C)CNC(=O)c1cc(I)c(C(F)(F)F)[nH]c1=O [compound 2223],>5
11,Cc1[nH]c(=O)c(C(=O)NCCC(C)C)cc1Cl [compound 2290],>5

# Tested on: Brassica napus
# Experiment: Drought stress test on sprayed greenhouse plants, visual damage scoring (Table 3)
# Assay type: in vivo
# Parameters: key: reduction in damage intensity, damage assessed in %
# Settings: efficacy = reduction in damage intensity, dosage 25 g/ha, spray WP, 600 l/ha water
# Method: as §1
row,Structure (SMILES),E (BRSNS)
1,CCOC(=O)C1CCCCN1C(=O)c1cc(C)c(C(F)(F)F)[nH]c1=O (stereo not drawn) [compound 204],>5
2,Cc1cc(C(=O)NC2CC2)c(=O)[nH]c1C(F)(F)C(F)(F)F [compound 225],>5
3,Cc1cc(C(=O)NCC2CC2)c(=O)[nH]c1C(F)(F)C(F)(F)F [compound 233],>5
4,C=C(C)CNC(=O)c1cc(C)c(C(F)(F)C(F)(F)F)[nH]c1=O [compound 247],>5
5,Cc1cc(C(=O)NC(C)CC(C)C)c(=O)[nH]c1C(F)(F)C(F)(F)F (stereo not drawn) [compound 256],>5
6,Cc1cc(C(=O)NC(C)C(C)C)c(=O)[nH]c1C(F)(F)C(F)(F)F (stereo not drawn) [compound 258],>5
7,COCCNC(=O)c1cc(C)c(C(F)(F)C(F)(F)F)[nH]c1=O [compound 266],>5
8,CCc1cc(C(=O)NCC(OC)OC)c(=O)[nH]c1C(F)(F)Cl [compound 813],>5
9,CCc1cc(C(=O)NC(C)CN(C)C)c(=O)[nH]c1C(F)(F)C(F)(F)Cl (stereo not drawn) [compound 933],>5
10,"CCOC(=O)C1CCCCN1C(=O)c1cc(Cl)c(C(F)(F)Cl)[nH]c1=O (stereo not drawn) [compound 1744, 1-({5′-chloro-6′-[chloro(difluoro)methyl]-2′-oxo-1′,2′-dihydropyridin-3′-yl}carbonyl)-piperidine-2-carboxylic acid ethyl ester]",>5
11,CC(C)CC(C)NC(=O)c1cc(Br)c(C(F)(Cl)C(F)(F)F)[nH]c1=O (stereo not drawn) [compound 2016],>5
12,CCC(CC)NC(=O)c1cc(Br)c(C(F)(Cl)C(F)(F)F)[nH]c1=O (stereo not drawn) [compound 2020],>5
13,CNC(=O)c1cc(I)c(C(F)(F)F)[nH]c1=O [compound 2220],>5
14,COCCCNC(=O)c1cc(I)c(C(F)C(F)(F)F)[nH]c1=O (stereo not drawn) [compound 2233],>5
15,Cc1cc(C(=O)NC(C)CC(C)C)c(=O)[nH]c1C(F)(Cl)C(F)(F)F (stereo not drawn) [compound 2246],>5

# Same assay, conditions: efficacy = reduction in damage intensity, dosage 50 g/ha, spray WP, 600 l/ha water
row,Structure (SMILES),E (BRSNS)
1,C=CCNC(=O)c1cc(Br)c(C(F)(F)F)[nH]c1=O [compound 1785],>5

# Same assay, conditions: efficacy = reduction in damage intensity, dosage 250 g/ha, spray WP, 600 l/ha water
row,Structure (SMILES),E (BRSNS)
1,Cc1cc(C(=O)NCC2CC2)c(=O)[nH]c1C [compound 13],>5
2,CCC(C)NC(=O)c1cc(C)c(C)[nH]c1=O (stereo not drawn) [compound 29],>5
3,"CCCC(C)NC(=O)c1cc(C)c(C)[nH]c1=O (stereo not drawn) [compound 32, 5,6-Dimethyl-2-oxo-N-(pentan-2-yl)-1,2-dihydropyridine3-carboxamide]",>5
4,COCCNC(=O)c1cc(C)c(C)[nH]c1=O [compound 46],>5
5,"CCc1cc(C(=O)NC2CC2)c(=O)[nH]c1C(F)(F)C(F)(F)F [compound 665, N-Cyclopropyl-5-ethyl-2-oxo-6-(pentafluoroethyl)-1,2-dihydropyridine-3-carboxamide]",>5
6,CCCc1cc(C(=O)NCCCOC)c(=O)[nH]c1C(F)(F)C(F)(F)F [compound 1154],>5
7,C=CCNC(=O)c1cc(Cl)c(C(F)(F)C(F)(F)Cl)[nH]c1=O [compound 1565],>5
8,CC(C)C(C)NC(=O)c1cc(Cl)c(C(F)(F)Cl)[nH]c1=O (stereo not drawn) [compound 1688],>5
9,Cc1cc(C(=O)NC(C)C(F)(F)F)c(=O)[nH]c1C(F)(F)C(F)(F)C(F)(F)F (stereo not drawn) [compound 2251],>5
